According to PMC10535389, “Can Pharmaceutical Excipients Threaten the Aquatic Environment? A Risk Assessment Based on the Microtox® Biotest” (Molecules, 2023):
In brackets after ≈: the same amount, converted by molar mass. Several values for one entry are separate records, joined by “and”; a condition that tells them apart may be missing. Equal values may be shown once. Where a name gives a salt, the structure may show the parent alone. Read-outs that look alike come from different tables or passages of the source. Marks after values point to notes of the source that are not given here.

Legend:
[1] = test system: Aliivibrio fischeri (strain NRRL B-11177); test: modified Microtox Basic Solid Phase Test (bioluminescence inhibition); type: cell-based; conditions: for EC50: Aliivibrio fischeri
Procedure: (§1) The bioluminescent marine bacterium Aliivibrio fischeri (strain NRRL B-11177) was used to evaluate the acute toxicity of individual excipients, as well as the API–excipient and excipient–excipient mixtures (Figure 1). The inhibition of bioluminescence was measured using the Microtox® Model 500 Analyzer (Modern Water Inc., New Castle, DE, USA). The modified Microtox® Basic Solid Phase Test protocol was applied, which was described in detail in our previous work; a scheme illustrating the course of the ecotoxicological study is shown in Figure 4. The bioluminescence inhibition of A. fischeri was measured after 5, 15, and 30 min of exposure of the bacterium to each sample and then compared with the light output of a control sample. […] Software™.

[2] = pH values of samples used in Microtox test; type: physicochemical; conditions: sample used in Microtox test
[3] = test system: Aliivibrio fischeri (strain NRRL B-11177); set-up: method as in earlier work; conditions: ref [10] (Turek et al., J. Haz. Mat. 399 (2020) 122839), cited from earlier work; for EC50 5 min: 5 min of incubation
[4] = modified Microtox Basic Solid Phase Test (bioluminescence inhibition); type: cell-based, Aliivibrio fischeri; conditions: Aliivibrio fischeri, Toxicity Category (Based on EC50, 30 min)
Procedure: as §1

[5] = test system: various aquatic organisms; conditions: ref [16, 17, 18, 19, 20]; cited from earlier work
[6] = NRRLB11177, 0.5 h, 30 min of exposure, 95% confidence interval in brackets, read-out: EC50 30 min
[7] = 30 min of exposure, 95% confidence interval in brackets
[8] = NRRLB11177, 5 min, read-out: EC50 5 min, 5 min of exposure, 95% confidence interval in brackets
[9] = NRRLB11177, 0.25 h, 15 min of exposure, 95% confidence interval in brackets, read-out: EC50 15 min
[10] = 5 min of exposure, 95% confidence interval in brackets
[11] = 15 min of exposure, 95% confidence interval in brackets

| Compound | EC50 [1, 6] [µg/mL] | pH [2] | EC50 5 min [3] [µg/mL] | EC50 15 min [3] [µg/mL] | EC50 at 30 min [4] [µg/mL] | EC50 30 min [1, 7] | EC50 [1, 8] [µg/mL] | EC50 [1, 9] [µg/mL] | further results |
| --- | --- | --- | --- | --- | --- | --- | --- | --- | --- |
| CCCCc1nc(Cl)c(CO)n1Cc1ccc(-c2ccccc2-c2nn[nH]n2)cc1 [LOS-K, Losartan potassium, reference compound] | 277 | 7.750 | 583.88 | 659.02 |  |  |  |  |  |
| CCCc1nc2c(C)cc(-c3nc4ccccc4n3C)cc2n1Cc1ccc(-c2ccccc2C(=O)O)cc1 [TEL, Telmisartan, reference compound] | 77.3 (≈ 150 µM) | 8.036 | 196.52 (≈ 382 µM) | 99.70 (≈ 194 µM) |  |  |  |  |  |
| CNC[C@H](O)[C@@H](O)[C@H](O)[C@H](O)CO [Meglumine] | 10 to 100 | 10.830 and ~11 |  |  | 10 to 100 | 18.05 (7.237–45.02) 0.7516 mg/L | 28.6 | 19.7 |  |
| CCCCCCCCCCCCCCCCCCOC(=O)/C=C/C(=O)[O-].[Na+] [Sodium stearyl fumarate] |  |  |  |  |  |  |  |  | EC50 5 min ([1]; 5 min, value calculated using two points, 95% confidence interval and R^2 could not be determined): 56,456 ^[b] mg/L; EC50 15 min ([1]; 15 min of exposure, EC50 calculated from extrapolated data): 12,815 ^[a] (38.84–4,457,999) 0.9221 mg/L; EC50 30 min ([1]; 30 min of exposure, EC50 calculated from extrapolated data): 80,534 ^[a] (2479–2,616,211) 0.8896 mg/L |
| OC[C@@H](O)[C@@H](O)[C@H](O)[C@@H](O)CO [Sorbitol] |  | 7.446 |  |  | > 100 | Non-toxic in tested concentration, hormesis |  |  | EC50 5 min [1, 10]: Non-toxic in tested concentration, hormesis; EC50 15 min [1, 11]: Non-toxic in tested concentration, hormesis; EC50 30 min ([1]; 30 min of exposure, 95% confidence interval in brackets, listed as sorbitol): completely non-toxic at the tested concentration |
| CCCCC(=O)N(Cc1ccc(-c2ccccc2-c2nnn[nH]2)cc1)[C@H](C(=O)O)C(C)C [VAL, Valsartan, reference compound] | 150 (≈ 346 µM) | 4.970 | 143.20 (≈ 329 µM) | 234.83 (≈ 539 µM) |  |  |  |  |  |
| OC[C@@H](O)[C@@H](O)[C@H](O)[C@H](O)CO [Mannitol] | 4250 (≈ 23300 µM) | 6.390 |  |  | > 100 |  | 12600 (≈ 69000 µM) | 5400 (≈ 29700 µM) |  |
| OC[C@H]1O[C@@H](O[C@H]2[C@H](O)[C@@H](O)[C@@H](O)O[C@@H]2CO)[C@H](O)[C@@H](O)[C@H]1O [Lactose monohydrate] |  | 5.113 |  |  | > 100 |  | 11700 | 14000 | EC50 ([1]; NRRLB11177, 0.5 h, 30 min of exposure, EC50 calculated from extrapolated data, read-out: EC50 30 min): 16400 µg/mL |
| Magnesium carbonate (heavy) |  | 10.257 |  |  |  | 65.60 (44.19–97.37) 0.9738 mg/L |  |  | EC50 5 min [1, 10]: 109.8 (55.61–216.6) 0.9360 mg/L; EC50 15 min [1, 11]: 86.42 (58.99–126.6) 0.9678 mg/L; EC50 30 min ([1]; 30 min of exposure, 95% confidence interval in brackets, listed as magnesium carbonate): 10 to 100 mg/L; Toxicity Category (Based on EC50, 30 min) ([1]; GHS acute toxicity categories [11]): III ((III) harmful, 10 < EC50 < 100 mg/L) |
| CCCCCCCCCCCCOS(=O)(=O)O [Sodium lauryl sulfate (SLS), Sodium lauryl sulfate] | < 1 | 6.779 |  |  | < 1 | 0.5544 (0.1138–2.702) 0.6931 mg/L | 1.37 | 0.8 | LC50 (lethal concentration) [5]: 1 to 13.9 µg/mL |
